Experimental data published in patent publication US10101324B2, “Non-competitive immunoassays to detect small molecules using nanopeptamers” (priority 2012, dated 2018).

Assays:
[1] = tested on: MoAb 14D7; details: molinate; same antibody MoAb 14D7; Rufo et al. 2004; cited from earlier work
[2] = tested on: anti-molinate monoclonal antibody (MoAb 14D7); assay: Cross-reactivity of the pA-Nanopeptamer noncompetitive ELISA with related thiocarbamate pesticides; type: binding
[3] = tested on: MoAb 5.6; details: clomazone, Carlomagno et al. 2010; cited from earlier work

Row | SMILES | Cross reactivity, pA-Nanopeptamer assay [2] [%] | other results
1 | CCSC(=O)N1CCCCCC1 [Molinate] |  | IC50 of the competitive ELISA [1]: 0.069 ± 0.0005 µg/mL
2 | CCCCN(CC)C(=O)SCCC [Pebulate] | 6 | 
3 | CC1(C)CON(Cc2ccccc2Cl)C1=O [clomazone] |  | IC50 of the competitive format [3]: 0.028 ± 0.0011 µg/mL
4 | CCN(CC)C(=O)SCc1ccc(Cl)cc1 [thiobencarb] | 0 | 
